“And” between values parts separate entries of the source, which are not always exact repeats. Identical values can stand only once.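 1) Cells in 96-well plates. 2) Compound, 48 h, 5 concentrations. 3) Linear interpolation between surrounding doses. 4) Unreached endpoint = highest concentration. GI50 = concentration required for 50% inhibition of growth. TGI: total growth inhibition.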
Experiments:
Assay in all cases: NCI tumour cell line growth inhibition, 48 h
MCF7 breast = system: MCF7 breast
HS 578T breast = system: HS 578T breast
BT-549 breast = system: BT-549 breast
MDA-MB-231 breast = system: MDA-MB-231 breast
T-47D breast = system: T-47D breast
KM20L2 colon = system: KM20L2 colon
DMS 273 small cell lung = system: DMS 273 small cell lung
DLD-1 colon = system: DLD-1 colon
M19-MEL melanoma = system: M19-MEL melanoma

Row | Structure (SMILES) | GI50 (MCF7 breast) [µM] | TGI (MCF7 breast) [µM] | GI50 (HS 578T breast) [µM] | TGI (HS 578T breast) | GI50 (BT-549 breast) [µM] | TGI (BT-549 breast) | GI50 (MDA-MB-231 breast) [µM] | TGI (MDA-MB-231 breast) [µM] | GI50 (T-47D breast) [µM] | TGI (T-47D breast) [µM] | TGI (KM20L2 colon) [µM] | TGI (DMS 273 small cell lung) | TGI (DLD-1 colon) [µM] | TGI (M19-MEL melanoma) [µM] | GI50 (KM20L2 colon) [µM] | GI50 (DMS 273 small cell lung) [µM] | GI50 (DLD-1 colon) [µM]
1 | COc1ccc2c(c1)[n+](=O)c(/C=C/C(=O)c1cc(OC)c(OC)c(OC)c1)c(C)n2[O-] | 3.14 | > 100 | 4.72 | 46.6 µM | 6.11 | 65 µM | 12.6 | 88.4 | 2.56 | 14.7 |  |  |  |  |  |  | 
2 | Cc1cc(C)c(-c2c(O)c(Br)c(-c3c(C)cc(C)c(Br)c3C)c(O)c2Br)c(C)c1Br | 2.38 | 11.8 | 2.32 | 11.9 µM | 2.25 | 10.5 µM | 1.65 | 4.42 | 1.7 | 4.84 |  |  |  |  |  |  | 
3 | COC(=O)C1=C(O)c2cc(OC)c(OC)c(OC)c2C(c2ccc3c(c2)OCO3)[C@@H]1C(=O)OC (stereo partly specified) |  |  |  |  |  |  |  |  |  |  | 6.43 | > 100 µM | > 100 |  |  |  | 
4 | COc1ccc(CN2c3ccccc3Sc3ccccc32)cc1O | 0.355 | 13.4 | 0.933 | 46 µM | 0.773 | 17.1 µM | 0.668 | 18.1 |  |  |  |  |  |  |  |  | 
5 | NC(=S)c1cccc(C2Nc3ccccc3O2)c1 (stereo unspecified) |  | > 100 |  | > 100 µM |  |  |  | > 100 |  | > 100 |  |  |  |  |  |  | 
6 | CC(=O)/C(=N\N=C(N)N)c1ccccc1 |  | > 100 |  | > 100 µM |  | > 100 µM |  | > 100 |  | > 100 |  |  |  |  |  |  | 
7 | CSCc1ncc(-c2ccc(C(F)(F)F)cc2)c(NC2CCCCCC2)n1 | > 10 | > 10 |  |  | > 10 | > 10 µM | > 10 | > 10 | > 10 | > 10 |  |  |  |  |  |  | 
8 | Cc1cc(C)nc(NC(=O)COc2ccc(Cl)cc2)c1 |  | > 100 |  | > 100 µM |  | > 100 µM |  | > 100 |  | > 100 |  |  |  |  |  |  | 
9 | CCOC(=O)c1sc(NC(=O)COc2ccc(/C=C3\CCc4cc(OC)ccc4C3=O)cc2)nc1C | 9.43 | 23 | 13.4 | 42.4 µM | 1.4 | 17.7 µM | 13.1 | 31.8 | 9.13 | 30.7 |  |  |  |  |  |  | 
10 | CN(C)C(=S)/N=c1\ssc(=Nc2ccccc2)n1-c1ccccc1 |  |  |  |  |  |  |  |  |  |  |  | 48.5 µM | > 100 | > 100 |  |  | 
11 | O=C(O)CCN1C(=S)CSC1=S |  | > 100 |  | > 100 µM |  | > 100 µM |  | > 100 |  | > 100 |  |  |  |  |  |  | 
12 | COc1ccc(N=c2nc3sc4cc(Cl)ccc4n3c(N)c2C#N)cc1 | 1.92 | 21.5 | 1.27 |  | 5.17 | 98 µM | 3.12 | 16.2 | 39.1 | > 100 |  |  |  |  |  |  | 
13 | N.N.N.N.O=S([O-])[O-].[Co+3].[N-]=[N+]=[N-] |  |  |  |  |  |  |  |  |  |  | > 100 | > 100 µM | > 100 |  | > 100 | > 100 | > 100
14 | O=c1[nH]c(=S)[nH]c2c1CCCN2 |  |  |  |  |  |  |  |  |  |  |  |  | > 100 | > 100 |  |  | 
15 | O=C(O)C12C=CC(C1)c1ccccc12 (stereo unspecified) |  |  |  |  |  |  |  |  |  |  | > 100 | > 100 µM | > 100 | > 100 |  |  | 
16 | Nc1ccccc1SC(/C=C/NNC1=NC(c2ccccc2)C(c2ccccc2)=NN1)c1ccccc1 (stereo unspecified) |  |  |  |  |  |  |  |  |  |  | 44.9 | 36.8 µM | 31.8 | 25 |  |  | 
17 | S=C(Nc1ccc(-c2nc3ccccc3s2)cc1)Nc1ccc(-c2nc3ccccc3s2)cc1 | 25 | 59 | 17.8 | 47.4 µM | 9.36 | 40.1 µM | 13.7 | 35 | 18.8 | > 100 |  |  |  |  |  |  | 
18 | Fc1ccc(-c2ncn(C3CCNCC3)c2-c2ccnc(Oc3ccc(Cl)cc3)n2)cc1 | 3.93 | 7.7 | 2.58 | > 11.3 µM | 5.05 | 18.8 µM | 4.46 | 8.6 | 2.74 | 6.71 |  |  |  |  |  |  | 
19 | O=C(Cc1nc2ccccc2s1)C(=O)Nc1cccc(C(F)(F)F)c1 |  |  |  |  |  |  |  |  |  |  | > 100 | > 100 µM | > 100 | > 100 |  |  | 
20 | CCCC(=O)Nc1cc(/C=C/C(=O)N2C[C@@H]3C[C@]34C2=CC(=O)c2[nH]cc(C)c24)n(C)c1 | 0.0208 |  | 0.143 | 1.96 µM and 0.55 µM | 0.233 | 1.96 µM and 0.749 µM |  | 1.68 |  | 1.08 |  |  |  |  |  |  | 
21 | NCCOCCOCC(=O)O |  |  |  |  |  |  |  |  |  |  | > 100 | > 100 µM |  | > 100 |  |  | 
22 | O=C(NNC(=O)c1ccncc1)C(=O)Nc1cc(Cl)c(Cl)cc1Cl |  | > 100 |  | > 100 µM |  | > 100 µM |  | > 100 |  | > 100 |  |  |  |  |  |  | 
23 | CC(C)(C)OC(=O)NCCCCCCCCCCCCn1c2c(c3ccccc3c1=O)C(=O)c1ccccc1-2 | > 100 | > 100 | 11.9 | 63.1 µM | 38.5 | > 100 µM | 21 | 58.9 | > 100 | > 100 |  |  |  |  |  |  | 
24 | CCNC(=O)COc1ccc(Cl)c(C)c1 |  |  |  |  |  |  |  |  |  |  | > 100 | > 100 µM | > 100 | > 100 |  |  | 
25 | O=C(NC1=C(Cl)C(=O)c2ccccc2C1=O)C(=O)c1c(O)c2ccccc2oc1=O |  | 8.39 |  | > 65 µM |  | 14.6 µM |  | 22.5 |  | 23.5 |  |  |  |  |  |  | 
26 | CCNc1ccc2c(c1)C(=O)N(OS(C)(=O)=O)C2=O |  | > 100 |  | > 100 µM |  | > 100 µM |  | > 100 |  | > 100 |  |  |  |  |  |  | 
27 | Cn1cc(-c2csc(-c3ccc(Cl)cc3)n2)c2cccnc21 | 11.9 | 29.8 | 12 | 34.4 µM | 18.6 | 51.9 µM | 13.3 | 33.3 | 5.17 | 36.4 |  |  |  |  |  |  | 
28 | Cc1c2cc[n+](C)cc2c(C)c2c1[nH]c1ccc(OCC(F)(F)F)cc12 |  |  |  |  |  |  |  |  |  |  | > 100 | > 31.7 µM and 30.9 µM | > 100 | > 24.5 |  |  | 
29 | COc1ccc(/C=C(\C#N)c2cc(OC)c(OC)c(OC)c2)cc1 | 0.0272 | > 50.3 | 0.0359 | > 100 µM | 0.0282 | 0.0883 µM | 0.0483 | > 100 | 0.672 | 61.8 |  |  |  |  |  |  | 
30 | COc1ccc(C(=O)c2ccccc2)c(O)c1 | > 100 | > 100 | 61.2 | > 100 µM |  |  | > 100 | > 100 | 10.1 | > 100 |  |  |  |  |  |  | 

From PubChem BioAssay (NCI)
